For series [1], the target named is sigma sites. The experiment in a line: Sigma receptor binding assay, [3H]DTG. Conditions: 5 nM [3H]DTG; guinea pig whole brain; room temperature, 45 minutes; read-out: Receptor Potency Sigma DTG (IC50, nMol). Here is the method: (§1) Two selective sigma receptor ligands, [^3 H](+)-3-[3-hydroxyphenyl]-N-(1 propyl)piperidine [(+)-3-PPP] and [^3 H] Ditolylguanidine (DTG), were used to label sigma sites in brain tissue.
(§2) The tissue preparation and assay conditions employed when using either of these ligands were essentially the same. Frozen whole guinea pig brains (obtained from Pel-Freez, Rogers, Ariz.) were homogenized in 10 volumes of ice-cold 0.32M sucrose. The resulting pellet was resuspended in 10 volumes of ice-cold 50 mM Tris-HCl (pH 7.4), incubated at 37 ° C. for 30 minutes, and centrifuged at 22,000 × g for 20 minutes. The final tissue suspension was made in 50 mM Tris-HCl (pH 7.4) to a concentration of 20 mg original wet weight/mL. 800 μL of tissue suspension was added to tubes containing 5 nM [^3 H] DTG or 4 nM [^3 H] […] The final assay volume was 1 mL. The assay tubes were gently vortexed, and the binding reaction was carried out for 45 minutes at room temperature. The reaction was terminated by rapid filtration over Whatman GF/B glass fiber filters, which were then rinsed 3x with 5 mL of 50 mM Tris-HCl. Filter bound radioactivity was quantified using liquid scintillation spectrometry.

Series [2] has as its target T1, D2 (Rattus norvegicus, UniProt P61169).
T1 construct: Rat striata were homogenized; from tissue; host or cells: rat striatum membranes
Briefly: Dopamine receptor binding, [3H]sulpiride. Conditions: 3 nM [3H]sulpiride; rat striata; 60 minutes; read-out: Receptor Potency D2 (Ki, nMol). Here is the method:
Dopamine receptor binding was determined using [^3 H] sulpiride. Rat striata were homogenized in 20 volumes of ice-cold 50 mM Tris-HCl (pH 7.5), and the resulting homogenate was centrifuged at 48,000 × g for 10 minutes. The resulting pellet was resuspended in the original volume of 50 mM Tris HCl and centrifuged as previously described. […] The filters were then washed 3 × with 5 mL of 50 mM Tris-HCl containing 100 mM NaCl, and filter bound radioactivity was quantified using liquid scintillation spectrometry.

Series [3] is described as follows: Reversal of Amphetamine-Induced Hyperlocomotion. It is filed as in vivo. Conditions: Mus musculus, ip, read-out: Induced Locomotion Amphetamine (minimally effective dose, MED).
Excerpt: Opto-varimex locomotor monitors (Columbus Instruments, Columbus, Ohio) were used to assess locomotor activity. The monitors consist of a 37×37 cm square plexiglass open field surrounded by an outer enclosure housing a 15×15 array of infrared photobeams. Placement of the mouse in the open field interrupts one or more beams. Movement is detected by successive interruption of more than one beam (setting: box size - 1). The monitors were placed on separate shelves in a dark test room. An IBM compatible computer (Compaq) monitored beam interruptions and calculated indices of locomotor activity (distance travelled, time ambulating) and stereotype behavior (number of small movements, time in stereotypy or small movements). Because the dose of amphetamine in these studies was too low to produce selective increases in stereotyped behavior, distance travelled was the primary dependent variable.
Series [4] can be described thus: Induction of haloperidol-like catalepsy. It is filed as in vivo, mouse. Conditions: for TD50 at 0.5 h: mouse, in vivo. An excerpt:
[…]. At the time of the test the front paws of the mouse were placed on a 6 mm diameter rod which was mounted between the side walls of the apparatus, 39 mm above the floor. Gentle pressure was applied from the forefinger to immobilize the animal, with its back in a slightly arched (concave) position. The experimenter then released the mouse and recorded the latency to recover normal posture, as defined by return of at least one forepaw to the floor or placement of one hindlimb on the bar. […] TD50 values for lead compounds and reference compounds were confirmed in side-by-side studies by an experimenter blind to treatment conditions.

The conditions of series [5]: cited from earlier work.
Series [6] has as its target T2, sigma sites (Cavia porcellus, UniProt Q60492).
T2 construct: Frozen whole guinea pig brains; tissue Pel-Freez, Rogers, Ariz; host or cells: whole guinea pig brain membranes
The experiment in a line: Sigma receptor binding assay, [3H](+)-3-PPP. Conditions: 4 nM [3H](+)-3-PPP; guinea pig whole brain; room temperature, 45 minutes; read-out: Receptor Potency Sigma PPP (IC50, nMol). Here is the method:
as §1, §2

A short description of series [7]: Reversal of Phencyclidine-Induced Hyperlocomotion. It is filed as in vivo, mouse. Conditions: for minimal effective dose: Mus musculus, read-out: Induced Locomotion PCP (minimally effective dose, MED).
Excerpt: Opto-varimex locomotor monitors (Columbus Instruments, Columbus, Ohio) were used to assess locomotor activity. The monitors consist of a 37×37 cm square plexiglass open field surrounded by an outer enclosure housing a 15×15 array of infrared photobeams. Placement of the mouse in the open field interrupts one or more beams. Movement is detected by successive interruption of more than one beam (setting: box size - 1). The monitors were placed on separate shelves in a dark test room. An IBM compatible computer (Compaq) monitored beam interruptions and calculated indices of locomotor activity (distance travelled, time ambulating) and stereotype behavior (number of small movements, time in stereotypy or small movements).
Male CFl mice (25°-30 g) were obtained from Harlan Sprague Dawley (Indianapolis, (N) and group-housed with free access to food and water for at least four days prior to testing. All tests took place during the light period of a 12:12 hour light-dark cycle. Each daily test consisted of one group of mice receiving a vehicle injection and an injection of amphetamine as the agonist. One group received two vehicle injections, and one or more groups received test compound plus amphetamine. Test compounds or the appropriate vehicles were administered 20 minutes prior to the locomotor test in studies using an intraperitoneal (i.p.) route of administration with mice, 30 minutes prior to test session for studies using an i.p. route of administration to rats, 45 minutes prior to the test session for studies using an oral (p.o.) route of administration with mice and 55 minutes prior to the locomotor test for studies using a p.o. route of administration to rats.
The procedure and data analysis were identical to that reported above for reversal of amphetamine hyperlocomotion with the exception that 3 mg/kg phencyclidine was injected in place of amphetamine 10 minutes prior to the test session.
For the next series, the system named is sigma binding sites. Conditions: background statement; cited from earlier work.
The conditions of series [8]: background statement; SK&F 10047, PCP, amphetamine; cited from earlier work.
In series [9] the test system is D2. Conditions: background statement; cited from earlier work.
The conditions of series [10]: clinical trials; cited from earlier work.
The mark [11] stands for this setting: amphetamine 1.5 mg/kg i.p., mice, NE = no effect to dose shown.
[12] abbreviates: mice, 30 minutes after injection, NE = no effect to dose shown.
The mark [13] stands for this setting: phencyclidine 3 mg/kg, mice, NE = no effect to dose shown.
Setting [14] is: mice, 30 minutes after injection, NE = no effect to dose shown, read-out: Catalepsy (TD50).

Entries after “also recorded” stand apart in the source; their conditions may differ. Counter-ions that a name gives are not always drawn. Like-named read-outs stand apart in the source and are kept apart here.

T1 sequence (P61169 whole entry): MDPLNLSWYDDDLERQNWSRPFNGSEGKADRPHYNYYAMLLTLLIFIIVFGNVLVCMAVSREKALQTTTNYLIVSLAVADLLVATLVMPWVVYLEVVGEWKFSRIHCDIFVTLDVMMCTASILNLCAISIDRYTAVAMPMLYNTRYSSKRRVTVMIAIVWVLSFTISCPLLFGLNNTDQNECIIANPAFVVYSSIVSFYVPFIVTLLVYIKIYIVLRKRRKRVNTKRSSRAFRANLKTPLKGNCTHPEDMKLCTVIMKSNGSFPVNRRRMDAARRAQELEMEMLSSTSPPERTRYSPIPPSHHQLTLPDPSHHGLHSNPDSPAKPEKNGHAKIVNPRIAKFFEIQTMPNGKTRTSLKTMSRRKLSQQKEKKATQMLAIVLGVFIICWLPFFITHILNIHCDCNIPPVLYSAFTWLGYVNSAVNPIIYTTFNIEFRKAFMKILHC
T2 sequence (Q60492 whole entry): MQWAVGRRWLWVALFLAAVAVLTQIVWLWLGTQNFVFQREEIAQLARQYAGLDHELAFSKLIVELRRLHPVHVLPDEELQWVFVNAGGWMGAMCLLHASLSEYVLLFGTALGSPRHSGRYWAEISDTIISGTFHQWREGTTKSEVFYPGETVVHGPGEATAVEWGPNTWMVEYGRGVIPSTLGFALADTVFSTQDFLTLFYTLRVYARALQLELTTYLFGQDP

Consider `OC(CCCN1CCN(c2ncc(F)cn2)CC1)c1ccc(F)cc1` (stereo not drawn) [BMY14802, reference compound], for which, on sigma sites [1], the half-maximal inhibitory concentration (IC50) stood at 237 nM. On D2 [2], the inhibitory constant (Ki) amounted to 3000 nM. In [3] (setting [11]), the minimal effective dose was 15 mg/kg.
Consider `CN1CCN(C2=Nc3cc(Cl)ccc3Nc3ccccc32)CC1` [Clozapine, reference compound], for which the minimal effective dose in series [3] (setting [11]) was 1 mg/kg. For the same molecule, the “Catalepsy (TD50)” value in series [4] (setting [12]) is recorded as “NE (4)”. Moreover, in [5] (background statement), the extrapyramidal side effects result is on record as “relatively free of extrapyramidal side effects”. Further, in series [5] (chronic administration), the agranulocytosis entry is “produces agranulocytosis upon chronic administration”.
Consider `CN(C)CCCCCCOc1ccc2oc(-c3ccccc3)cc(=O)c2c1` [Example 4, 6-[6-Dimethylamino)hexoxy1-2-phenyl-4H-1-benzopyran-4-one hydrochloride], for which the IC50 came to 432 nM at sigma sites [1] and 335 nM on sigma sites [6]. At D2 [2], the Ki turned out to be 5550 nM. In addition, in [3], the minimal effective dose amounted to 30 mg/kg. Besides, in series [7] (setting [13]), the “Induced Locomotion PCP (minimally effective dose, MED)” value is “NE (30)”. The TD50 at 0.5 h in [4] (setting [14]) turned out to be 38 mg/kg.
For `O=c1cc(-c2ccccc2)oc2ccc(OCCCCCCN3CCC(O)CC3)cc12` [Example 6, 6-6(4-hydroxypiperidinyl)hexoxy]-2-phenyl-4H-1-benzopyran-4-one hydrochloride], the IC50 stood at 100 nM at sigma sites [1] and 124 nM on sigma sites [6]. Also, the inhibitory constant (Ki) on D2 [2] was determined as 3630 nM. Moreover, the values for the minimal effective dose in [3] (setting [11]) and in series [7] (setting [13]) were 5 mg/kg and 15 mg/kg, respectively. In addition, the TD50 at 0.5 h in series [4] was 61 mg/kg.
On to `O=c1cc(C2CCCCC2)oc2ccc(OCCCCCCN3CCC(O)CC3)cc12` [Example 26, 2-Cyclohexyl-6-[6-4-hydroxypiperidinyl)hexoxy]-4H-1-benzopyran-4-one hydrochloride], for which the figures for the concentration for half-maximal inhibition (IC50) at sigma sites [1] and on sigma sites [6] were 88 nM and 46 nM, respectively. The Ki at D2 [2] was determined as 25000 nM. The minimal effective dose in series [3] (setting [11]) turned out to be 20 mg/kg. The same molecule returned a TD50 at 0.5 h in series [4] of 50 mg/kg.
As for `O=c1cc(-c2ccccc2)oc2ccc(OCCCCCCN3CCCCC3)cc12` [Example 28, 2-Phenyl-6-(6-piperidinylhexoxy)-4H-1-benzopyran-4-one hydrochloride], the concentration for half-maximal inhibition (IC50) on sigma sites [6] was found to be 54 nM. In addition, the Ki on D2 [2] stood at 4440 nM. For the same molecule, the minimal effective dose in [3] (setting [11]) stood at 20 mg/kg; in [7] (setting [13]), 30 mg/kg. Besides, the TD50 at 0.5 h in [4] (setting [14]) was less than 30 mg/kg.
Turning to `O=c1cc(-c2ccccc2)oc2ccc(OCCCCCCN3CCOCC3)cc12` [Example 29, 6-(6-Morpholinylhexoxy)-2-phenyl-4H-1-benzopyran-4-one hydrochloride], the Ki at D2 [2] is 18700 nM. Also, the minimal effective dose in [3] was found to be 10 mg/kg. Also, in series [4] (setting [14]), the TD50 at 0.5 h was 38 mg/kg.
`O=c1cc(C2CCCCC2)oc2ccc(OCCCCCCN3CCCCC3)cc12` [Example 34, 2-Cyclohexyl-6-(piperidinylhexoxy)-4H-1-benzopyran-4-one hydrochloride]: on sigma sites [6], the IC50 stood at 32 nM. For the same molecule, the minimal effective dose in [3] (setting [11]) amounted to 10 mg/kg. In addition, the TD50 at 0.5 h in [4] was 30 mg/kg.
With `O=c1cc(-c2ccccc2)oc2cc(OCCCCCCN3CCC(O)CC3)ccc12` [Example 37, 7-[6-(4-Hydroxypiperidinyl)hexoxy]-2-phenyl-4H-1-benzopyran-4-one], at sigma sites [6], the half-maximal inhibitory concentration (IC50) was 70 nM. Besides, in series [3], the minimal effective dose came out at 30 mg/kg.
For the molecule `Cc1c(-c2ccccc2)oc2ccc(OCCCCCCN3CCC(O)CC3)cc2c1=O` [Example 39, 6-[6-(4-Hydroxypiperidinyl)hexoxy]-3-methyl-2-phenyl-4H-1-benzopyran-4-one hydrochloride], in [3] (setting [11]), the minimal effective dose amounted to 25 mg/kg. Moreover, the “Catalepsy (TD50)” value in [4] (setting [12]) is given as “NE (250)”.
For `O=c1cc(-c2ccccc2Cl)oc2ccc(OCCCCCCN3CCC(O)CC3)cc12` [Example 49, 2-(2-Chlorophenyl)-6-(6-(4-hydroxypiperidinyl)hexoxy)-4H-1-benzopyran-4-onehydrochloride], the IC50 at sigma sites [1] amounted to 47 nM; at sigma sites [6] it was 29 nM. Also, the inhibition constant Ki on D2 [2] amounted to 4050 nM. Besides, in series [3], the minimal effective dose is 30 mg/kg.
With `O=C(CCCN1CCC(O)(c2ccc(Cl)cc2)CC1)c1ccc(F)cc1` [Haloperidol, reference compound], the results for the minimal effective dose in series [3] and in [7] were 0.075 mg/kg and 0.15 mg/kg, respectively. For the same molecule, the TD50 at 0.5 h in series [4] (setting [14]) turned out to be 0.14 mg/kg. The “displacement of [3H]DTG and [3H](+)-3-PPP from sigma sites” value with sigma binding sites is “displace [^3 H]DTG and [^3 H](+)-3-PPP from sigma sites”. Further, the “reversal of stimulant and psychotomimetic effects” value in series [8] was “antagonize the stimulant/psychotomimetic effects of the dopamine agonist, amphetamine, and presumed sigma agonists such as PCP; also recorded: reverses the stimulant and psychotomimetic effects of SK&F 10047 and PCP”.
Consider `c1ccc(C2(N3CCCCC3)CCCCC2)cc1` [PCP, phencyclidine], for which the “displacement of [3H]DTG and [3H](+)-3-PPP from sigma sites” value with sigma binding sites is “displace [^3 H]DTG and [^3 H](+)-3-PPP from sigma sites”.
As for `CCN1CCC[C@H]1CNC(=O)c1c(OC)ccc(Br)c1OC` [Remoxipride], in the series on D2 [9], the D2 blocking potency entry is “significant D2 blocking potency”.
For the molecule `C[C@@H]1CN(CCCn2c3ccccc3c3ccccc32)C[C@H](C)N1` [Rimcazole, reference compound], the half-maximal inhibitory concentration (IC50) at sigma sites [1] worked out at 1620 nM. Further, the Ki at D2 [2] amounted to 22500 nM. Also, the minimal effective dose in series [3] is 20 mg/kg. Besides, the minimal effective dose in series [7] is greater than 20 mg/kg. Moreover, the “potency at sigma sites” value with sigma binding sites is listed as “only moderately potent at sigma sites”. In addition, in series [10], the “effectiveness in treating schizophrenia” value was “some effectiveness in treating schizophrenia” and the seizures result is “induce seizures”.

For orientation: IC50 means the concentration at which inhibition is half-maximal. Broadly, the Ki is a measure of affinity in units of concentration, obtained from inhibition or displacement.

The record behind these values is US5278174A, “Sigma binding site agents” (priority 1991, dated 1994).
